Test results from patent US7727526B2, “Use of PTHrP antagonists for treating renal cell carcinoma” (Universite Louis Pasteur, priority 2002, dated 2010).
“Also recorded” adds a separate entry of the source.

Experiments:
[1] = system: tumour cells UOK-128; experiment: Cell proliferation of UOK-128 tumour cells (cell count and BrdU incorporation); type: cell-based, human; settings: different concentrations, medium without serum, 48 hrs
Procedure: (§1) The cells were cultured in plates with 24 wells (1 ml per well) and in plates with 96 well (100 μl per well) at the rate of 10,000 to 30,000 C/ml. The cells were cultivated in the medium with serum described above. For the assays with the RPTH1 antagonists, after 24 hrs of culture, the medium was changed for a medium without serum containing 0.1% BSA (bovine serum albumin, Sigma) and the antibiotics. This manipulation facilitates cultivation of the cells in the absence of the factors present in the serum and facilitates assessment of the influence of the antagonist on cell proliferation. […]
(§2) The cell proliferation was determined by two means, on the one hand by counting the cells (manual counting) using plates with 24 wells and on the other hand by measuring the incorporation of 5-bromo-2′-deoxyuridine (BrdU) using plates with 96 wells.
(§3) The culture medium is removed by suction and an adequate volume of trypsin-EDTA (Sigma) is added. […] The cells are then recovered and manually counted with a counting cell placed under an optic microscope. […]
(§4) For the experiments in vitro, the results of the manual counts are expressed as a percentage of the number of cells present in the control wells. […] The incorporations in response to the treatments are thus expressed as a percentage of the incorporations of positive controls taken as 100% incorporation. […]

[2] = system: 786-0 cells implanted subcutaneously; experiment: First experimental protocol: subcutaneous 786-0 tumours in nude mouse, daily RPTH1 antagonist; type: in vivo
Procedure: (§5) The 786-0 cells were cultivated in the RPMI 1640 medium supplemented with serum until confluence. The cells were recuperated by trypsination and re-suspended in RPMI 1640 medium without serum and without antibiotics at the rate of 5 million cells/200 μl the same day of implantation of the mice. The cells were implanted subcutaneously in the backs of nude mice at the rate of 200 μl per implantation. A week to 10 days after the implantation of the cells, the tumours developed forming nodules of approximately 60 to 300 mm^3. From this moment, the treatments were initiated according to three protocols: a pilot protocol which was performed in order to determine the effectiveness of the treatments in vivo and carried out on two mice per experimental condition receiving 4 implantations (namely 8 tumours/experimental condition) and two experimental protocols elaborated following the results obtained with the pilot protocol on 10 or 5 mice per experimental condition and receiving 1 or 2 implantations (namely 10 tumours/experimental condition).
First Experimental Protocol. […] Consequently, in this protocol, on the one hand the numbers in each group were increased (10 mice with a tumour/experimental group) and on the other hand daily injections either of water (control) or of the RPTH1 antagonist (dissolved in sterile water) were performed. As for the pilot protocol, all the injections were performed intraperitoneally (200 μl water or 20 μg/mouse of antagonist in 200 μl) and intratumourally (100 μl of water or 10 μg/mouse of antagonist in 100 μl). For this series, the size of the tumours was measured in a blind way twice a week under light gas anaesthesia with isoflurane. At the end of the experimental period, the mice were anaesthetised with pentobarbital. Approximately 0.5 ml of blood was then recovered rapidly through intracardiac puncture of each mouse for the dosage of electrolytes and circulating PTHrP. The tumours were dissected and fixed in formol for subsequent histo-pathological studies (necrotic aspect) and immunohistochemical studies (factor VIII, PTHrP, RPTH1, mitotic index and apoptotic index).
Proliferative and Apoptotic Index. The proliferation index was determined by coloration of tumour section with a monoclonal mouse antibody anti-Ki67 human, Dako, Trappes, France) using standard methods. The detection kit of apoptotic cells based upon the TUNEL method (Roche Diagnostics) was used to measure the apoptotic index on the sections. The total cells and those coloured in 15 fields (0.25 mm^2 each) of the highest cell coloration were counted in order to determine the two indexes which are expressed as a percentage of coloured cells in relation to total cells.
Factor VIII and Microvascular Density. The tumour sections were coloured for the endothelial cells with a rabbit polyclonal antibody anti-human […], (Dako) using standard methods. The density of the micro-vessels was determined by counting the intersection points between vessels and the total number of vessels of 4 to 5 fields (0.25 mm^2 each) showing the highest vascular density.
(§6) For the experiments in vivo in the nude mouse, the results of tumour growths were expressed as a percentage of the size at day 0 of the treatments. The results are expressed as a mean +/−ESM. […]

[3] = system: 786-0 cells implanted subcutaneously; experiment: Pilot protocol: subcutaneous 786-0 tumours in nude mouse, twice weekly injections; type: in vivo; settings: for growth of implanted tumours: twice weekly i.p. and intratumoural injections, 25 days (antibody stopped after 18 days), versus control
Procedure: as §5
Pilot Protocol. In this protocol, 6 mice were separated into three groups: a first group receiving injections of sterile water (control), a second group receiving injections of anti-PTHrP (1-34) antibody (Bachem, dissolved in sterile water) and a third group receiving injections of antagonist (Asn10, Leu11, D-Trp12)PTHrP(7-34) amide (Bachem, dissolved in sterile water). All injections were performed 2 times per week intra-peritoneally (50 μg/mouse of antibody or 20 μg/mouse of antagonist in 200 μl) and in intra-tumoural terms (25 μg/mouse of antibody or 10 μg/mouse of antagonist in […]). […] The volume of the tumours (length×width×depth×0.5236) was manually measured in a blind manner with callipers on days 0, 4, 7, 12, 14, 18, 23 and 25 after the first injection of the compounds under light gas anaesthesia with isoflurane. […]
as §6

[4] = system: tumour cells 786-0; experiment: Analysis of cell death/apoptosis (detachment, OA/EB staining, DNA laddering); type: cell-based, human; settings: 48 hrs
Procedure: The cells were treated under control conditions or with either an anti-PTHrP N-terminal antibody at 1.5 μg/ml or a RPTH1 antagonist at 1 μM for 48 hrs. The orange acridine (OA) and the ethidium bromide (EB) were dissolved in a PBS buffer and added at 2 μg/ml in the culture medium. The cells were observed and photographed under fluorescence microscopy, either for the FITC (OA) or for the TRITC (EB). The fragmentation of the internucleosomal DNA was detected by a “DNA laddering” test. The cells were re-suspended in 300 μl of lysis buffer (25 mM EDTA, 1% SDS, 1 mg/ml proteinase K, pH 8) and incubated overnight at 50° C. DNA was extracted by phenol/chloroform, precipitated with ethanol and analysed by electrophoresis on agarose gel.

[5] = system: tumour cells 786-0; experiment: Cell proliferation of 786-0 tumour cells (cell count and BrdU incorporation); type: cell-based, human; settings: antagonist at different concentrations, medium without serum, 48 hrs
Procedure: as §1, §2, §3, §4

[6] = system: tumour cells UOK-126; experiment: Cell proliferation of UOK-126 tumour cells (cell count and BrdU incorporation); type: cell-based, human; settings: different concentrations, medium without serum, 48 hrs
Procedure: as §1, §2, §3, §4

[7] = daily antagonist, treated versus control group

(Asn10, Leu11, D-Trp12)PTHrP(7-34) amide (human, rat) [RPTH1 antagonist]
effect of antagonist on cell proliferation [1]: strongly inhibit
apoptotic index (TUNEL) of tumours [2, 7]: increased twofold
histopathological analysis of tumours [2, 7]: No polymorphic difference
number of intersection points of the vessels and total number of vessels per surface area [2, 7]: significantly increased
proliferation index (Ki67) of tumours [2, 7]: not different
growth of implanted tumours ([2]; daily i.p. 20 μg/mouse and intratumoural 10 μg/mouse, 17 days, versus control): totally inhibited; also recorded: completely blocks the tumour growth
growth of implanted tumours [3]: blocks the growth
growth of implanted tumours ([3]; listed as antagonist): considerably slowed-down growth; also recorded: greatly slow down tumour growth
first day of significant tumour growth in comparison to day 0 ([3]; twice weekly treatment, control significant from day 7): 12 days
number of cells marked by EB (cell death) ([4]; 1 μM, compared with non-treated cells): clearly increases
cell adherence to the culture support ([4]; 10^−6 M, RPMI 1640 without serum): detaching the cells from the culture support
inhibition of cell proliferation [5]: 70%
effect of antagonist on cell proliferation [6]: inhibit very strongly
